In paper PMC6332194, “Synthesis of C3/C1-Substituted Tetrahydroisoquinolines” (Molecules, 2015):

Experiments:
Assay in all cases: fluorogenic peptide-AMC hydrolysis assay
Type in all cases: biochemical
[1] = molecular target: T1, human 20S proteasome, β2-subunits (trypsin-like activity) (Homo sapiens, UniProt Q99436)
T1 construct: gene PSMB7; commercial 20S core particle (Biomol GmbH); with Proteasome subunit beta type-3; Proteasome subunit beta type-5; Proteasome subunit beta type-6; Proteasome subunit beta type-1; Proteasome subunit beta type-2; Proteasome subunit beta type-4; Proteasome subunit alpha type-6; Proteasome subunit alpha type-2; Proteasome subunit alpha type-4; Proteasome subunit alpha type-7; Proteasome subunit alpha type-5; Proteasome subunit alpha type-1; Proteasome subunit alpha type-3
T1 sequence (Q99436 44-277): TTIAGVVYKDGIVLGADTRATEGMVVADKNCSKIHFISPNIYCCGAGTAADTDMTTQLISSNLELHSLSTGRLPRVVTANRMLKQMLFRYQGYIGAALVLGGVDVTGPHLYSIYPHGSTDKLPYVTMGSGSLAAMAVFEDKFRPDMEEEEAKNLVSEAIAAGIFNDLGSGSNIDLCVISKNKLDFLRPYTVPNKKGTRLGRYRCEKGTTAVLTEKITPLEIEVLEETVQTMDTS

[2] = molecular target: T2, human 20S proteasome, β5-subunits (chymotrypsin-like activity) (Homo sapiens, UniProt P28074)
T2 construct: gene PSMB5; commercial 20S core particle (Biomol GmbH); with Proteasome subunit beta type-1; Proteasome subunit beta type-6; Proteasome subunit beta type-7; Proteasome subunit beta type-3; Proteasome subunit beta type-2; Proteasome subunit beta type-4; Proteasome subunit alpha type-6; Proteasome subunit alpha type-2; Proteasome subunit alpha type-4; Proteasome subunit alpha type-7; Proteasome subunit alpha type-5; Proteasome subunit alpha type-1; Proteasome subunit alpha type-3
T2 sequence (P28074 60-263): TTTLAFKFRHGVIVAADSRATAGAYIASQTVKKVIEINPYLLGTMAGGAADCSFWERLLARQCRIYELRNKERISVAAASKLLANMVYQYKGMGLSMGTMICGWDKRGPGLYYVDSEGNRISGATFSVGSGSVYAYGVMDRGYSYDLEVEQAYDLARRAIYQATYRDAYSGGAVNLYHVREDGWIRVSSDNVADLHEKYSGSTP

[3] = molecular target: T3, recombinant Leishmania mexicana cysteine protease CPB2.8 (Leishmania mexicana, UniProt P36400)
T3 construct: gene LMCPB; recombinant; often used without C-terminal extension
T3 sequence (P36400 126-340): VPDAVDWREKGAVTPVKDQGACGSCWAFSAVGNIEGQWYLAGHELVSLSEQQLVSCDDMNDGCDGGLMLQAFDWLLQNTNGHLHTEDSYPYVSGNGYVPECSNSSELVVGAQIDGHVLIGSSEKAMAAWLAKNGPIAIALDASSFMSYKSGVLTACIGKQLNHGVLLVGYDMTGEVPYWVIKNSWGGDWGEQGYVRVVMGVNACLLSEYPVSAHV

`COc1cc2c(cc1O)[C@@H](C)N(C)CC2` [compound 2, N-methylisosalsoline] was tested. Which inhibition at 20 µM [1] did it give?
Its inhibition at 20 µM is roughly 20%.

And the inhibition at 20 µM [2]?
Its inhibition at 20 µM is roughly 40%.

What about the inhibition at 20 µM [3] of the same molecule?
The inhibition at 20 µM was roughly 14%.
